Measurements taken from patent US8921312B2, “Combination of insulin and ascorbate to enhance wound healing” (University of South Florida, priority 2006, dated 2014).

Legend:
[1] = tested on: collagen types I and V; assay: Collagen helix stability: pepsin digestion of culture medium, SDS-PAGE; format: cell-based, bovine; conditions: pepsin in 0.5M acetic acid
Experimental: Cell Culture-Keratocytes were isolated from adult bovine corneas using two sequential collagenase digestions as previously described (see […], and […]. Production of prostaglandin D synthase as a keratan sulfate proteoglycan by cultured bovine keratocytes Invest Ophthalmol Vis Sci. 2001; 42:1201-1207; which is incorporated herein by reference). […] Each sample received a second 50 μl aliquot from the pepsin stock, and digestion was allowed to continue for an additional six hours at 4° C. The samples were titrated with 1 N NaOH to pH 8.0 to inactivate the enzyme, dialyzed against water overnight, lyophilized, reconstituted in 1 X SDS running buffer and separated on 10% bis-tris gels under reducing conditions. The gels were stained with Safestain following the manufacturer's protocol.

[2] = tested on: keratocan; assay: Western blot of keratan sulfate proteoglycan accumulation in the medium: keratocan; format: cell-based, bovine
Experimental: (§1) Cell Culture-Keratocytes were isolated from adult bovine corneas using two sequential collagenase digestions as previously described (see […], and […]. Production of prostaglandin D synthase as a keratan sulfate proteoglycan by cultured bovine keratocytes Invest Ophthalmol Vis Sci. 2001; 42:1201-1207; which is incorporated herein by reference). […] Western blot analysis-Core protein and protein levels in the media were measured by Western blot as previously described. In brief, the culture media was collected from each culture condition, concentrated by spin filtration to one tenth or one fiftieth of the original volume. The size of the aliquot needed from each sample to provide a similar signal on film by Western blot was empirically determined. The measured pixel density was then divided by the DNA content of the culture equivalent to the amount loaded and expressed as pixel density per μg DNA. Blots were probed with polyclonal antibodies to bovine keratocan or lumican (diluted 1:1000) or prostaglandin D synthase (PGDS) (1:20,000). The lumican and keratocan antibodies are peptide antibodies raised against the core protein^48. The rabbit antiserum to bovine PGDS was a generous gift of Gary […] University). Membranes were rinsed and incubated for 1 hour in 1:10,000 horseradish peroxidase (HRP)-conjugated secondary IgG (GE Healthcare, Piscataway, N.J.). Protein bands were visualized using ECL (GE Healthcare, Piscataway, N.J.) on Kodak Bio-Max XAR X-ray film. Band density was measured using a Bio-Rad GS-710 Calibrated Imaging Densitometer (Bio-Rad, Hercules, Calif.).

[3] = tested on: lumican; assay: Western blot of keratan sulfate proteoglycan accumulation in the medium: lumican; format: cell-based, bovine
Experimental: as §1

[4] = tested on: prostaglandin D synthase (PGDS); assay: Western blot of keratan sulfate proteoglycan accumulation in the medium: PGDS; format: cell-based, bovine
Experimental: as §1, with “Membranes were rinsed and incubated for 1 hour in 1:10,000 horseradish peroxidase (HRP)-conjugated secondary IgG (GE Healthcare, Piscataway, N.J.). Protein bands were visualized using ECL (GE Healthcare, Piscataway, N.J.) on Kodak Bio-Max XAR X-ray film.” left out

[5] = tested on: cells; conditions: cited from earlier work
[6] = tested on: keratocytes; assay: Keratocyte population growth in defined media (DNA content, Cyquant); format: cell-based, bovine; conditions: DMEM/F12; insulin 10 μg/ml, ascorbate 1 mM; days 1-10
Source text: Cell Culture-Keratocytes were isolated from adult bovine corneas using two sequential collagenase digestions as previously described (see […], and […]. Production of prostaglandin D synthase as a keratan sulfate proteoglycan by cultured bovine keratocytes Invest Ophthalmol Vis Sci. 2001; 42:1201-1207; which is incorporated herein by reference). […] DNA quantitation-Cell layers were harvested on days 1, 4, 7 and 10 to measure DNA content using Cyquant (Invitrogen, Carlsbad, Calif.). Briefly, the cell layers were rinsed with PBS, frozen, thawed and solubilized in a lysis buffer supplemented with a DNA binding dye. The DNA content was determined at 480/535 nm by measuring 4 wells in triplicate and comparing the values to a calf thymus DNA standard. The DNA content of parallel cultures was measured for experiments that utilized the cell layer. Cell proliferation-Cultures were radiolabeled with 20 μCi ^3H-thymidine/ml of medium for 72 hours beginning on days 1 and 4. The labeled medium was removed upon harvesting, and the cell layers washed with cold PBS. The cell layers were processed as described under DNA quantitation. Incorporation into DNA was determined as previously described.

[7] = tested on: keratocytes; assay: Collagen synthesis: 3H-glycine incorporation into collagenase-sensitive protein; format: cell-based, bovine; conditions: 3H-glycine 72 h
Experimental: Cell Culture—Keratocytes were isolated from adult bovine corneas using two sequential collagenase digestions as previously described (see Berryhill B L, Beales M P, and Hassell J R. Production of prostaglandin D synthase as a keratan sulfate proteoglycan by cultured bovine keratocytes Invest Ophthalmol Vis Sci. 2001; 42:1201-1207; which is incorporated herein by reference). Cells were plated in DMEM/F12 at high density (20,000 cells/cm^2) in 6-well plates (Costar, Cambridge, Mass.) and allowed to attach overnight at 37° C. in 5% CO2. The medium was changed the next day (day 1) and on days 4, 7 and 10 to fresh DMEM or DMEM supplemented with insulin (10 μg/ml), with or without 1 mM 2-phospho-L-ascorbic acid (ascorbate). Ethyl-3,4-dihydroxybenzoate (EDB) was added at 0.08 mM and 0.4 mM final concentration on day 1.
Collagen synthesis—The incorporation of ^3H-glycine into collagen was determined as previously described. In summary, cultures were incubated for 72 hours in medium containing 25 μCi ^3H-glycine/ml beginning on day 1. Media was adjusted to 4M guanidine HCl and the cell layers extracted in 4M guanidine HCl. Unincorporated isotope in media and cell layers was removed by chromatography on PD10 columns equilibrated and eluted with 4M guanidine HCl (GE Healthcare, Piscataway, N.J.). Fractions containing incorporated radioactivity were pooled, dialyzed against water and 400 μl aliquots incubated with or without 2.5 Units collagenase form III (Advanced Biofactures, Lynbrook, N.Y.) in collagenase digestion medium (3 mM N-ethyl maleimide, 50 mM Tris pH 7.5, 150 mM NaCl and 5 mM CaCl2) for 3 hours at 37° C. Undigested proteins were precipitated with carrier BSA using cold 10% TCA containing 0.5% tannic acid and released incorporated counts measured by liquid scintillation. The DNA content was determined as described above.

[8] = tested on: keratan sulfate; assay: Incorporation of 35SO4 into keratan sulfate (endo-β-galactosidase sensitive); format: cell-based, bovine; conditions: 72 h labeling; medium; CPM per μg DNA; vs control
Source text: (§2) Cell Culture-Keratocytes were isolated from adult bovine corneas using two sequential collagenase digestions as previously described (see […], and […]. Production of prostaglandin D synthase as a keratan sulfate proteoglycan by cultured bovine keratocytes Invest Ophthalmol Vis Sci. 2001; 42:1201-1207; which is incorporated herein by reference). […] The medium was collected, frozen, lyophilized and reconstituted in 4 M guanidine HCl. Unincorporated isotope was removed using PD 10 columns Fractions containing incorporated ^35SO4 were combined and concentrated using Amicon Ultra spin-concentrators. Incorporation into CS and KS was determined by digestion with chondroitinase ABC or endo-β-galactosidase (Seikagaku, Associates of Cape Cod, E. Falmouth, Mass.) as previously described. Aliquots containing equivalent incorporated radioactivity were fractionated using a Superose 6 12/30 HR column (GE Healthcare, Piscataway, N.J.) equilibrated and eluted with 4M guanidine HCl (0.05 NaAc, pH6.5) at 0.3 ml/min Fractions (0.6 ml) were collected and incorporation measured by liquid scintillation counting. The levels of CS and KS in each fraction were determined as described above.

[9] = tested on: chondroitin sulfate; assay: Incorporation of 35SO4 into chondroitin sulfate (chondroitinase ABC sensitive); format: cell-based, bovine; conditions: 72 h labeling; medium; CPM per μg DNA; vs control
Source text: as §2

[10] = 0.08 mM EDB in medium containing insulin and ascorbate, 72 hours, vs insulin+ascorbate
[11] = 0.4 mM EDB in medium containing insulin and ascorbate
[12] = medium day 4, pixel density per μg DNA, vs control

Molecule	Pepsin-resistant collagen bands in the medium with EDB ([1]; 0.4 mM EDB in insulin plus ascorbate medium)	Reduction of keratocan accumulation [2, 10] [%]	Keratocan accumulation in the medium [2, 11]	Reduction of lumican accumulation [3, 10] [%]	Lumican accumulation in the medium [3, 11]	PGDS level in the medium with EDB ([4]; EDB in medium containing insulin and ascorbate)	Toxicity to the cells [5]	Cell number (DNA content) over 10-day culture period [6]	Total collagen synthesized, fold more compared to control ([7]; day 1-4, insulin 10 μg/ml, ascorbate 1 mM, vs control medium) [fold]	Collagen in the cell layer, fold increase compared to control ([7]; cell layer, vs control) [fold]	Collagen in the medium, fold increase compared to control ([7]; medium, vs control) [fold]	Pepsin-resistant collagen (α1(I), α2(I), α1(V) bands) in the medium ([1]; SDS-PAGE)	Keratocan level in the medium, fold increase compared to control [2, 12]	Lumican level in the medium, fold increase compared to control [3, 12]	PGDS level in the medium [4, 12]	35SO4 incorporation into KS, fold compared to control [8]	35SO4 incorporation into CS, fold compared to control [9]
CCOC(=O)c1ccc(O)c(O)c1 [EDB, Ethyl-3,4-dihydroxybenzoate]	absent	28	levels below of those measured in insulin alone	19	levels below of those measured in insulin alone	declined but the decrease was not significant	not toxic to the cells	–	–	–	–	–	–	–	–	–	–
insulin: insulin added at 10 μg/ml to defined DMEM medium for keratocyte culture	–	–	–	–	–	–	–	increased in number	4	5	3	absent	no effect	no effect	neither ascorbate nor insulin affected PGDS levels	only minor changes	only minor changes
